Experimental data from patent US10889573B2, “Anthelmintic quinoline-3-carboxamide derivatives” (Bayer Animal Health GMBH, priority 2016, dated 2021).

What was measured:
[1] = test system: Dirofilaria immitis microfilariae; test: In vitro assay 3: Dirofilaria immitis microfilariae (DIROIM L1), motility; conditions: 72 h, read-out: EC50 (reduction of motility), 72 h incubation
C. elegans Slo-1a = C. elegans Slo-1a (Caenorhabditis elegans, UniProt Q95V25); conditions: pE50 (negative decadic logarithm of EC50), CHO cells expressing C. elegans Slo-1a, voltage sensitive dye
Chain of C. elegans Slo-1a (Q95V25 whole entry): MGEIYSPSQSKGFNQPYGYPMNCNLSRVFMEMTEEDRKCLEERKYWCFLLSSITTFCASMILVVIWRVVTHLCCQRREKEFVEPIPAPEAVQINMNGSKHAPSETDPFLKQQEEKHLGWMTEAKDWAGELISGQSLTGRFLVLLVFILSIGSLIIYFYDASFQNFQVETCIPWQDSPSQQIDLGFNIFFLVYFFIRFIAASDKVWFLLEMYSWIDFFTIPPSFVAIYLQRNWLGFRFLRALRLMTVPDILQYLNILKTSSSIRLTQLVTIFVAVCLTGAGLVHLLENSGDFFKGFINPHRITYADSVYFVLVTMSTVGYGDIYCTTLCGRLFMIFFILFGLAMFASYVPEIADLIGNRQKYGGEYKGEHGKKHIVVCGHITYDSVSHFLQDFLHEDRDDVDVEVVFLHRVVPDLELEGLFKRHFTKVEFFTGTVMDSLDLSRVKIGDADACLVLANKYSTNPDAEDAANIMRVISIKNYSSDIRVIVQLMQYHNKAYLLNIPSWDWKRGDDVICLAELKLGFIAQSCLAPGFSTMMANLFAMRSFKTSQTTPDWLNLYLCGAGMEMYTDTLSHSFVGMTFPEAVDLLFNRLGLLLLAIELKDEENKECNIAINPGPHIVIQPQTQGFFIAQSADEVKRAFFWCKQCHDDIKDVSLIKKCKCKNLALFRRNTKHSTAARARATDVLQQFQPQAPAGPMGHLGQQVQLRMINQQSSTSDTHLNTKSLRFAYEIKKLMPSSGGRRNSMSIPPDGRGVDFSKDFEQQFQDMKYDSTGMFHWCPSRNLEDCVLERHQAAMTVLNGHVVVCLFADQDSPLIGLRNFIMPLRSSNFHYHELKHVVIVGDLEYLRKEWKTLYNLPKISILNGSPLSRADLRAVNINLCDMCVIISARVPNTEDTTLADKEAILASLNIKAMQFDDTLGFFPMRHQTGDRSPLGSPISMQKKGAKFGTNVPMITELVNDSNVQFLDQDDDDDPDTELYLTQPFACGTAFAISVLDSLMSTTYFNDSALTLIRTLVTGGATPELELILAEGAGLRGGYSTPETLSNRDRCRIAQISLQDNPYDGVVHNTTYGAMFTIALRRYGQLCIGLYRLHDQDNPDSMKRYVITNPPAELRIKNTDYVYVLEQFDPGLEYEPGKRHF
Method: In Vitro Assay 1: C. elegans Slo-1a—Action at a Recombinant C. elegans Cell Line
Cells were cultured at 37° C. and 5% CO2 in MEMalpha with Gutamax I (Invitrogen, Nr.: 32571), supplemented with 10% (v/v) heat inactivated fetal bovine serum (Invitrogen, Nr.: 10500), G418 (1 mg/ml, Invitrogen, Nr.: 10131). Cells were detached using Accutase (Sigma, Nr.: A6964).
Membrane Potential Measurements
Laboratory compound testing was performed on 384-well microtiter plates (MTPs, Greiner, Nr.: 781092). 8000 cells/well were plated onto 384-well MTPs and cultured for 20 to 24 hours at 37° C. and 5% CO2. After removal of the cell culture medium, the cells were washed once with tyrode (150 mM NaCl, 0.3 mM KCl, 2 mM CaCl2, 1 mM MgCl2, 0.8 mM NaH2PO4, 5 mM Glucose, 28 mM Hepes, pH 7.4) and then loaded with the voltage sensitive dye of the Membrane Potential Assay Kit diluted in tyrode for 1 h at room temperature.
After starting the measurement of fluorescence using a FLIPR Tetra (Molecular Devices, Exc. 510-545 nm, Emm. 565-625 nm), test compounds were added followed by the addition of KCl tyrode (final assay concentration: 70 mM KCl, 2 mM CaCl2, 1 mM MgCl2, 0.8 mM NaH2PO4, 5 mM Glucose, 28 mM Hepes, pH 7.4, including the voltage sensitive dye). The measurement was completed after 7 minutes.
The data were evaluated by using the ActivityBase XLfit software (IDBS) for curve fitting and calculation of the half-maximal effective concentration (EC50) and are reported as negative decadic logarithm (pE50).

[2] = test system: Nippostrongylus brasiliensis; test: In vitro assay 2: Nippostrongylus brasiliensis (NIPOBR), acetylcholine esterase readout; conditions: read-out: activity (reduction of AChE compared to negative control); for inhibition at 1 µg/mL: 1 μg/ml; for inhibition at 10 µg/mL: 10 μg/ml
Method: In Vitro Assay 2: Nippostrongylus brasiliensis (NIPOBR)
Adult Nippostrongylus brasiliensis were washed with saline buffer containing 100 U/ml penicillin, 0.1 mg/ml streptomycin and 2.5 μg/ml amphotericin B. Test compounds were dissolved in DMSO and worms were incubated in medium in a final concentration of 10 μg/ml (10 ppm) respectively 1 μg/ml (1 ppm). An aliquot of the medium was used to determine the acetylcholine esterase activity in comparison to a negative control. The principle of measuring acetylcholine esterase as readout for anthelmintic activity was described in Rapson et al (1986) and Rapson et al (1987).

Cooperia curticei = conditions: for mortality at 20 ppm / mortality at 4 ppm: Cooperia curticei, 120 h, read-out: activity (larval mortality)
Method: In Vitro Assay 6: Cooperia curticei (COOPCU L3)
Solvent: dimethyl sulfoxide
Approximately 40 nematode larvae (Cooperia curticei) are transferred into a test tube containing the compound solution.
After 5 days percentage of larval mortality is recorded. 100% efficacy means all larvae are killed; 0% efficacy means no larvae are killed.

Haemonchus contortus = conditions: 120 h, read-out: activity (larval mortality)
Method: In Vitro Assay 7: Haemonchus contortus (HAEMCO L3)
Solvent: dimethyl sulfoxide
Approximately 40 larvae of the red stomach worm (Haemonchus contortus) are transferred into a test tube containing compound solution.
After 5 days the percentage of larval mortality is recorded. 100% efficacy means all larvae are killed, 0% efficacy means no larvae are killed.

Row | SMILES | EC50 [1] [µg/mL] | EC50 (C. elegans Slo-1a) [nM] | other results
1 | O=C(N[C@H]1CCc2ccccc21)c1cnc2c(-c3cc(Cl)cc(Cl)c3)cccc2c1N1CC(O)C1 [Example 102] | < 1 | 3.16 to 31.6 | –
2 | CCOC(=O)[C@@H]1CCCN1c1c(C(=O)N[C@H]2CCOc3ccccc32)cnc2c(-c3cc(Cl)cc(Cl)c3)cccc12 [Example 320] | < 1 | 3.16 to 31.6 | –
3 | Cc1ncc(-c2cccc3c(N(C)C)c(C(=O)N[C@H]4CCOc5ccccc54)cnc23)s1 [Example 456] | < 1 | 31.6 to 316 | –
4 | O=C(O)CNc1c(C(=O)N[C@H]2CCOc3ccccc32)cnc2c(-c3cc(Cl)cc(Cl)c3)cccc12 [Example 276] | < 0.1 | 31.6 to 316 | inhibition at 1 µg/mL [2]: > 80%; mortality at 20 ppm (Cooperia curticei): 90%; mortality at 20 ppm (Haemonchus contortus): 80%
5 | O=C(N[C@H]1CCOc2ccccc21)c1cnc2c(-c3ccc(F)c(Cl)c3)cccc2c1N1CCOCC1 [Example 190] | – | – | activity (larval mortality) (Cooperia curticei; 0.8 ppm, after 5 days): 80%
6 | O=C(N[C@H]1CCOc2ccccc21)c1cnc2c(-c3cc(Cl)cc(Cl)c3)cccc2c1N1CCC(F)(F)CC1 [Example 398] | < 10 | < 3.16 | –
7 | CC(C)(C)OC(=O)[C@@H]1CCCN1c1c(C(=O)N[C@H]2CCc3ccccc32)cnc2c(-c3cc(Cl)cc(Cl)c3)cccc12 [Example 241] | < 1 | 31.6 to 316 | –
8 | CN(C)c1c(C(=O)NC2CCOc3c(Br)cccc32)cnc2c(-c3cc(Cl)cc(Cl)c3)cccc12 (centres unmarked) [Example 634] | < 0.1 | 31.6 to 316 | inhibition at 1 µg/mL [2]: > 80%
9 | O=C(N[C@H]1CCOc2ccccc21)c1cnc2c(-c3cc(Cl)cc(Cl)c3)c(O)ccc2c1N1CCOCC1 [Example 616] | < 0.1 | < 3.16 | –
10 | CC(C)(C)OC(=O)[C@@H]1CCCN1c1c(C(=O)N[C@H]2CCOc3ccccc32)cnc2c(-c3cc(Cl)cc(Cl)c3)cccc12 [Example 242] | < 1 | 31.6 to 316 | –
11 | CN(C)c1c(C(=O)N[C@H]2CCOc3ccccc32)cnc2c(-c3ccc4ncn(C)c4c3)cccc12 [Example 71] | < 1 | 31.6 to 316 | inhibition at 10 µg/mL [2]: > 80%
12 | O=C(N[C@H]1CCOc2ccccc21)c1cnc2c(-c3cc(Cl)cc(Cl)c3)cccc2c1N1CCC[C@@H]1CO [Example 287] | < 10 | 3.16 to 31.6 | inhibition at 1 µg/mL [2]: > 80%
13 | CCOC(=O)C(C#N)c1c(C(=O)N[C@H]2CCOc3ccccc32)cnc2c(-c3cc(Cl)cc(Cl)c3)cccc12 (stereo partly drawn) [Example 354, ethyl cyano{8-(3,5-dichlorophenyl)-3-[(4S)-3,4-dihydro-2H-chromen-4-ylcarbamoyl]quinolin-4-yl}acetate] | < 1 | 31.6 to 316 | –
14 | CN(C)c1c(C(=O)NC2CCOc3ccc(Br)cc32)cnc2c(-c3cc(Cl)cc(Cl)c3)cccc12 (centres unmarked) [Example 580] | < 1 | 316 to 5010 | –
15 | O=C(NC1CCOc2ccccc21)c1cnc2c(-c3cc(Cl)cc(Cl)c3)cccc2c1N1CC2CCC(C1)O2 (centres unmarked) [Example 302] | < 10 | < 3.16 | inhibition at 1 µg/mL [2]: > 80%
16 | CN(C)c1c(C(=O)N[C@H]2CCOc3ccccc32)cnc2c(-c3ccc(C#N)s3)cccc12 [Example 389] | < 10 | 31.6 to 316 | –
17 | CC1CN(c2c(C(=O)N[C@H]3CCc4ccccc43)cnc3c(-c4cc(Cl)cc(Cl)c4)cccc23)C1 [Example 120] | < 10 | 31.6 to 316 | –
18 | O=C(N[C@H]1CCOc2ccccc21)c1cnc2c(-c3cc(Cl)cc(Cl)c3)cccc2c1Sc1ccccn1 [Example 363] | < 10 | 316 to 5010 | inhibition at 10 µg/mL [2]: > 80%
19 | COC(=O)CNc1c(C(=O)N[C@H]2CCOc3ccccc32)cnc2c(-c3cc(Cl)cc(Cl)c3)cccc12 [Example 375] | < 0.1 | 3.16 to 31.6 | inhibition at 1 µg/mL [2]: > 80%
20 | O=C(N[C@H]1CCOc2ccccc21)c1cnc2c(-c3cc(Cl)cc(Cl)c3)cccc2c1Cl [Example 4, 4-chloro-8-(3,5-dichlorophenyl)-N-[(4S)-3,4-dihydro-2H-chromen-4-yl]quinoline-3-carboxamide] | < 0.1 | 3.16 to 31.6 | –
21 | CC(C)(C)OC(=O)[C@@H]1CCCN1c1c(C(=O)N[C@H]2CCOc3ccccc32)cnc2c(-c3cc(Cl)cc(Cl)c3)cccc12 [Example 243, tert-butyl 1-{8-(3,5-dichlorophenyl)-3-[(4S)-3,4-dihydro-2H-chromen-4-ylcarbamoyl]quinolin-4-yl}-L-prolinate] | – | 316 to 5010 | –
22 | CN(C)c1c(C(=O)N[C@H]2CCOc3ccccc32)cnc2c(-c3cc(C#N)cc(Cl)c3Cl)cccc12 [Example 624] | < 0.1 | < 3.16 | inhibition at 1 µg/mL [2]: > 80%; mortality at 4 ppm (Cooperia curticei): 80%; mortality at 20 ppm (Cooperia curticei): 100%; mortality at 20 ppm (Haemonchus contortus): 80%

Row | SMILES | EC50 [1] [µg/mL] | EC50 (C. elegans Slo-1a) [nM] | other results
23 | O=C(N[C@H]1CCOc2ccccc21)c1cnc2c(-c3cc(Cl)cc(Cl)c3)cccc2c1CO [Example 592] | – | 316 to 5010 | –
24 | COc1cc(F)c(-c2cccc3c(N4CCOCC4)c(C(=O)N[C@H]4CCOc5ccccc54)cnc23)cc1F [Example 230] | < 1 | 31.6 to 316 | –
25 | COCCNc1c(C(=O)N[C@H]2CCc3ccccc32)cnc2c(-c3cc(Cl)cc(Cl)c3)cccc12 [Example 298] | – | < 3.16 | mortality at 20 ppm (Cooperia curticei): 80%
26 | O=C(N[C@H]1CCc2ccccc21)c1cnc2c(-c3cc(Cl)cc(Cl)c3)cccc2c1OCC1CCCC1 [Example 348] | < 1 | 3.16 to 31.6 | –
27 | CN(C)c1c(C(=O)N[C@H]2CCOc3ccccc32)cnc2c(-c3ccc(F)cc3Cl)cc(F)cc12 [Example 180] | < 0.1 | 3.16 to 31.6 | mortality at 20 ppm (Haemonchus contortus): 80%
28 | O=C(N[C@H]1CCc2ccccc21)c1cnc2c(-c3cc(Cl)cc(Cl)c3)cccc2c1N1CCC[C@@H]1C(=O)O [Example 299] | < 1 | 31.6 to 316 | –
29 | COC(=O)c1cc(-c2cccc3c(N4CCOCC4)c(C(=O)N[C@H]4CCOc5ccccc54)cnc23)c2ocnc2c1 [Example 216] | < 1 | 31.6 to 316 | –
30 | O=C(N[C@H]1CCOc2ccccc21)c1cnc2c(-c3cccc(Cl)c3Cl)cccc2c1C1=CCOCC1 [Example 653] | < 0.1 | < 3.16 | inhibition at 1 µg/mL [2]: > 80%
31 | CN(C)c1c(C(=O)NC2COCc3ccccc32)cnc2c(-c3cc(Cl)cc(Cl)c3)cccc12 (centres unmarked) [Example 581] | < 0.1 | 31.6 to 316 | inhibition at 1 µg/mL [2]: > 80%
32 | CN(C)c1c(C(=O)NC2COCc3c(F)cccc32)cnc2c(-c3cc(Cl)cc(Cl)c3)cccc12 (centres unmarked) [Example 665] | – | 31.6 to 316 | –
33 | CC(=O)N(C)Cc1c(C(=O)N[C@H]2CCOc3ccccc32)cnc2c(-c3cc(Cl)cc(Cl)c3)cccc12 [Example 631] | < 10 | < 3.16 | inhibition at 1 µg/mL [2]: > 80%; mortality at 4 ppm (Cooperia curticei): 100%; mortality at 20 ppm (Cooperia curticei): 100%; mortality at 4 ppm (Haemonchus contortus): 100%; mortality at 20 ppm (Haemonchus contortus): 100%
34 | C=C(C)c1c(C(=O)N[C@H]2CCOc3ccccc32)cnc2c(-c3cc(Cl)cc(Cl)c3)cccc12 [Example 317, 8-(3,5-dichlorophenyl)-N-[(4S)-3,4-dihydro-2H-chromen-4-yl]-4-(prop-1-en-2-yl)quinoline-3-carboxamide] | < 0.1 | 3.16 to 31.6 | –
35 | O=C(N[C@H]1CCOc2ccccc21)c1cnc2c(-c3cc(Cl)cc(Cl)c3)cccc2c1C1CCNC1 (mixture of isomers) [Example 519] | < 10 | 31.6 to 316 | –
36 | O=C(N[C@H]1CCc2ccccc21)c1cnc2c(-c3cccc(Cl)c3)cccc2c1Cl [Example 6] | < 0.1 | 3.16 to 31.6 | –
37 | Cc1nc2c(-c3cccc(Cl)c3Cl)cccc2c(N(C)C)c1C(=O)N[C@H]1CCOc2ccccc21 [Example 481, 8-(2,3-dichlorophenyl)-N-[(4S)-3,4-dihydro-2H-chromen-4-yl]-4-(dimethylamino)-2-methylquinoline-3-carboxamide] | < 10 | 3.16 to 31.6 | –
38 | O=C(N[C@H]1CCOc2ccccc21)c1cnc2c(-c3cc(Cl)cc(Cl)c3)cccc2c1CCO [Example 593] | – | 3.16 to 31.6 | –
39 | CN(C)C(=O)c1c(C(=O)N[C@H]2CCOc3ccccc32)cnc2c(-c3cc(Cl)cc(Cl)c3)cccc12 [Example 585] | < 1 | 3.16 to 31.6 | inhibition at 1 µg/mL [2]: > 80%
40 | O=C(N[C@H]1CCOc2ccccc21)c1cnc2c(-c3cc(Cl)ccc3F)cc(O)cc2c1N1CCOCC1 [Example 626] | < 0.1 | 3.16 to 31.6 | inhibition at 1 µg/mL [2]: > 80%
41 | Cn1cc(-c2c(C(=O)N[C@H]3CCOc4ccccc43)cnc3c(-c4cc(Cl)cc(Cl)c4)cccc23)c(=O)n(C)c1=O [Example 654] | < 1 | 31.6 to 316 | –
42 | Cc1ccc(C)c(-c2cccc3c(N(C)C)c(C(=O)N[C@H]4CCOc5ccccc54)cnc23)c1 [Example 471] | < 0.1 | 3.16 to 31.6 | inhibition at 1 µg/mL [2]: > 80%; mortality at 20 ppm (Cooperia curticei): 80%; mortality at 4 ppm (Haemonchus contortus): 80%
43 | COc1ccc(F)cc1-c1cccc2c(N3CCC(O)C3)c(C(=O)N[C@H]3CCOc4ccccc43)cnc12 (mixture of isomers) [Example 270] | < 0.1 | 3.16 to 31.6 | –
